Test results from patent publication US20130243794A1 (priority 2010, published 2013).
“Also recorded” adds a separate entry of the source.

What was measured:
baboons = details: in vivo
Bacillus anthracis = system: Bacillus anthracis; set-up: species or system baboons (Papio c. cynocephalus); details: in vivo

Substance | circulating bDNA after toxin administration (baboons) | blood cultures (bacterial colony counts) (Bacillus anthracis) | decreases in fibrinogen (and in platelets) (Bacillus anthracis) | liver and kidney function (ALT, AST, BUN, creatinine) (Bacillus anthracis) | peak bDNA load (16S bacterial DNA, plasma qPCR) (Bacillus anthracis) | peak plasma mtDNA (CytB) level during anthrax bacteremia (Bacillus anthracis) | plasma bDNA (16S-rDNA) level and fall off over time (Bacillus anthracis) | plasma mtDNA levels after resolution of bacteremia (Bacillus anthracis) | respiratory rate (RR) / tachypnea (Bacillus anthracis) | survival (Bacillus anthracis)
Shiga toxin 1 [ST1] | insignificant levels | – | – | – | – | – | – | – | – | –
activated protein C [aPC] | – | no effect; also recorded: no significant difference between groups | not mitigated | markedly spared | no significant effect | approximately 200 ng/mL | essentially identical fall off; also recorded: no effect; also recorded: does not affect | mtDNA levels began falling after 24 hours; also recorded: plasma mtDNA levels decayed; also recorded: reduction in mtDNA | RR remained normal; also recorded: prevents tachypnea; also recorded: RR was unchanged | the animals survived; also recorded: all these animals survived
